Experimental data as given in patent publication US12258328B2, “6-membered heteroaryl-containing aminopyridine compounds as EGFR inhibitors” (YUHAN CORPORATION, priority 2021, dated 2025).
Where two headings read alike, the source gives them in different places.

What was measured:
EGFR L858R/T790M/C797S = EGFR L858R/T790M/C797S (Homo sapiens, UniProt P00533, C797S/L858R/T790M); test: Biochemical EGFR kinase assay (Lance Ultra TR-FRET), triple mutant L858R/T790M/C797S
Outline: (§1)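 In this biochemical assay, phosphorylation after a one-hour room-temperature reaction was detected with europium-labelled anti-phosphopeptide antibody at 2 nM final concentration.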

EGFR del19/C797S = EGFR del19/C797S (Homo sapiens, UniProt P00533, C797S/DEL746-750); test: Biochemical EGFR kinase assay (Lance Ultra TR-FRET), double mutant del19/C797S
Outline: as §1

EGFR del19/T790M/C797S = EGFR del19/T790M/C797S (Homo sapiens, UniProt P00533, C797S/DEL746-750/T790M); test: Biochemical EGFR kinase assay (Lance Ultra TR-FRET), triple mutant del19/T790M/C797S
Outline: as §1

EGFR wildtype = EGFR wildtype (Homo sapiens, UniProt P00533); test: Biochemical EGFR kinase assay (Lance Ultra TR-FRET), wildtype
Outline: as §1

EGFR L858R/C797S = EGFR L858R/C797S (Homo sapiens, UniProt P00533, C797S/L858R); test: Biochemical EGFR kinase assay (Lance Ultra TR-FRET), double mutant L858R/C797S
Outline: as §1

[1] = IC50 L858R/T790M/C797S (nM) 100 μM ATP, 100 μM ATP
[2] = Km ATP, read-out: IC50 L858R/T790M/C797S (nM) Km ATP
[3] = IC50 del19/C797S (nM) 100 μM ATP, 100 μM ATP
[4] = Km ATP, read-out: IC50 del19/C797S (nM) Km ATP
[5] = IC50 del19/T790M/C797S (nM) 100 μM ATP, 100 μM ATP
[6] = Km ATP, read-out: IC50 del19/T790M/C797S (nM) Km ATP
[7] = IC50 WT (nM) 100 μM ATP, 100 μM ATP
[8] = Km ATP, read-out: IC50 WT (nM) Km ATP
[9] = Km ATP, read-out: IC50 L858R/C797S (nM) Km ATP
[10] = IC50 L858R/C797S (nM) 100 μM ATP, 100 μM ATP

Chain of EGFR wildtype (P00533 25-1210): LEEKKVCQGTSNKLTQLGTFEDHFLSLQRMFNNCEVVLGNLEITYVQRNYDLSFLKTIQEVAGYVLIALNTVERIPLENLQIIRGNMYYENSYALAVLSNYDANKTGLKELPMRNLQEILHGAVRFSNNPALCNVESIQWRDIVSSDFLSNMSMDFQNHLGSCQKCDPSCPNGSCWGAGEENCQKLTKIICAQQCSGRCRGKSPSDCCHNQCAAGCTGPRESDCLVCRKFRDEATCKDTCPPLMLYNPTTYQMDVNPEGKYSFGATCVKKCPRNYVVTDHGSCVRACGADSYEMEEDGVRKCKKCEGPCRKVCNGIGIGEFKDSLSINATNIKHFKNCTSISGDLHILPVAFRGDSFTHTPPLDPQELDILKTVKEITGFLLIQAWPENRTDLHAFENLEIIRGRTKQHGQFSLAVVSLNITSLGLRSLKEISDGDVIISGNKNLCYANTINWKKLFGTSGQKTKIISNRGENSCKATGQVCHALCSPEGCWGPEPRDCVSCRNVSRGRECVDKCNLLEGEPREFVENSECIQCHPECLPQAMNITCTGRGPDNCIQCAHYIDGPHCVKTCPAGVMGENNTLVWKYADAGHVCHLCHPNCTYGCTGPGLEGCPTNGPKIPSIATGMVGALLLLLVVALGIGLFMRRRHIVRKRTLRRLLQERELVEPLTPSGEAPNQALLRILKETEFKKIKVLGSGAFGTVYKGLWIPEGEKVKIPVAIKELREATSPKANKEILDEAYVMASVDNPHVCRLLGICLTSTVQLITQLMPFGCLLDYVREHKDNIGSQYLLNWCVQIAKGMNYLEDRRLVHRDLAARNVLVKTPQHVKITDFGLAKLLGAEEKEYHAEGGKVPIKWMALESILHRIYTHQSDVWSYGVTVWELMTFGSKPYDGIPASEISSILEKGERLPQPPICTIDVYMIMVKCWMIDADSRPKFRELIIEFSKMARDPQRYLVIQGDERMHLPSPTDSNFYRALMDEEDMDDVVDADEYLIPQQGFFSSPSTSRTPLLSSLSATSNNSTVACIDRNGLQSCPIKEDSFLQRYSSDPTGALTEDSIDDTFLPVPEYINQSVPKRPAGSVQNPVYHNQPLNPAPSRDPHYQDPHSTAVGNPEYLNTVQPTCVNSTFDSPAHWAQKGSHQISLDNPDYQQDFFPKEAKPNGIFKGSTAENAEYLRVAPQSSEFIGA
Chain of EGFR del19/C797S (P00533 with tags, fused parts or gaps DEL746-750/C797S): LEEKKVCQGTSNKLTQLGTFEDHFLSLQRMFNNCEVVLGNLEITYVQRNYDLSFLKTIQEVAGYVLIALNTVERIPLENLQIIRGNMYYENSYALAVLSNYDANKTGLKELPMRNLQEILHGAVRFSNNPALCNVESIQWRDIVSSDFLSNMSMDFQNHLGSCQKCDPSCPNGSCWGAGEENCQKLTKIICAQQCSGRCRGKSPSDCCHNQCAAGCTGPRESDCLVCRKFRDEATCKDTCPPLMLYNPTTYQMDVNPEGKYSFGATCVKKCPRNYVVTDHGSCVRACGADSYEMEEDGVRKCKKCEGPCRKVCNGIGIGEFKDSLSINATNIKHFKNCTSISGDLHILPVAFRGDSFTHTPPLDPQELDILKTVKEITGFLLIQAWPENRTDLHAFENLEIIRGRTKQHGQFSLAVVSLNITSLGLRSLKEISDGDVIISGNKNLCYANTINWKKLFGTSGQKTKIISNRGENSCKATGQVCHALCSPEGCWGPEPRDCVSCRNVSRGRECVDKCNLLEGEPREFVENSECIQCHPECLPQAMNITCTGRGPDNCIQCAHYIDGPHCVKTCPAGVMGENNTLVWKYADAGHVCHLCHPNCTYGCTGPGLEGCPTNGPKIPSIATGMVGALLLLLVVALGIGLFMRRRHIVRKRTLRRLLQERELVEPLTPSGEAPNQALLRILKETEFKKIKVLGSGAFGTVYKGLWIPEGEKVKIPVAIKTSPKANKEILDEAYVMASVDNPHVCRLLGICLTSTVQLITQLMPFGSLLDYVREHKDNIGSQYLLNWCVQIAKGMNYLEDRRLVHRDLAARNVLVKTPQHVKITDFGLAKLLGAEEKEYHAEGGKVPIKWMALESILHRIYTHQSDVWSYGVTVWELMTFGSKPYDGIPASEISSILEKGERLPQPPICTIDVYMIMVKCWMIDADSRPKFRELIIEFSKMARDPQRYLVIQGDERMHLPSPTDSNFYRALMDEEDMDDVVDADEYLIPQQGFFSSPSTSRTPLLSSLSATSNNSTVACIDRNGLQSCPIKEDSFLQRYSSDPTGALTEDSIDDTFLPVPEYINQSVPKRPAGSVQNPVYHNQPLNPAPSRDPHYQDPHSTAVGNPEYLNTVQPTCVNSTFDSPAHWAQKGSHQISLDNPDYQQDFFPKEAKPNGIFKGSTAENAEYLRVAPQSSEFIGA
Chain of EGFR L858R/C797S (P00533 25-1210 C797S/L858R): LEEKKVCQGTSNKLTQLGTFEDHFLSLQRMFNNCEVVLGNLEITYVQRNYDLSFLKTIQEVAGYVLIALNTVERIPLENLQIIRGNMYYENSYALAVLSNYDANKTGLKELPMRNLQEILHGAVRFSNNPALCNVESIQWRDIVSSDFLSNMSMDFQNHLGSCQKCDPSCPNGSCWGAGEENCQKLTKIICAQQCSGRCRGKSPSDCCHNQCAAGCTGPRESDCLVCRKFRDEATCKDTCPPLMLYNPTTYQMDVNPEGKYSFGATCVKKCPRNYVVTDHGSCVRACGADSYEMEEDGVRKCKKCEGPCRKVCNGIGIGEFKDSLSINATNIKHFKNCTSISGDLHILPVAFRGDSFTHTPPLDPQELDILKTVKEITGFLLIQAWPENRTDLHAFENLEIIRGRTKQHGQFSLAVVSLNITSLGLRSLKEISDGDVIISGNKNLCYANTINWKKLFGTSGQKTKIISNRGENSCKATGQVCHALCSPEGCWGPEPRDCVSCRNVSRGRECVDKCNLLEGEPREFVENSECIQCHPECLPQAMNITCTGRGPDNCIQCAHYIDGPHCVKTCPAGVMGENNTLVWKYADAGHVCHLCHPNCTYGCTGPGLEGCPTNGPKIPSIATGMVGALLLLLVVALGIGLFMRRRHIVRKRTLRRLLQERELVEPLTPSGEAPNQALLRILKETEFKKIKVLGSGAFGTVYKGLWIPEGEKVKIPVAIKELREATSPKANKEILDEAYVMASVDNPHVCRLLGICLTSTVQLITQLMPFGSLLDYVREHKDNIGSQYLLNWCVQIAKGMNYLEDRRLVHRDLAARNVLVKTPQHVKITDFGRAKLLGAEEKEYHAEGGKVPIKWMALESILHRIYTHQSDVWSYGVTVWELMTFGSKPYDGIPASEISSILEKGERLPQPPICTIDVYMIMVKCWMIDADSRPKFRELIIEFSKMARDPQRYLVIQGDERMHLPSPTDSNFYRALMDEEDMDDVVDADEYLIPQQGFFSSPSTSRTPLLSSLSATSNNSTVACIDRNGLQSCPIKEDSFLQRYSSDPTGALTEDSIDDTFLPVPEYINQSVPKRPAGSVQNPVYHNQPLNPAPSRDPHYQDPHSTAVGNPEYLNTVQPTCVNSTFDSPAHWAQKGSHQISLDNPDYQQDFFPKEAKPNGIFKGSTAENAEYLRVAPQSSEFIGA
Chain of EGFR L858R/T790M/C797S (P00533 25-1210 T790M/C797S/L858R): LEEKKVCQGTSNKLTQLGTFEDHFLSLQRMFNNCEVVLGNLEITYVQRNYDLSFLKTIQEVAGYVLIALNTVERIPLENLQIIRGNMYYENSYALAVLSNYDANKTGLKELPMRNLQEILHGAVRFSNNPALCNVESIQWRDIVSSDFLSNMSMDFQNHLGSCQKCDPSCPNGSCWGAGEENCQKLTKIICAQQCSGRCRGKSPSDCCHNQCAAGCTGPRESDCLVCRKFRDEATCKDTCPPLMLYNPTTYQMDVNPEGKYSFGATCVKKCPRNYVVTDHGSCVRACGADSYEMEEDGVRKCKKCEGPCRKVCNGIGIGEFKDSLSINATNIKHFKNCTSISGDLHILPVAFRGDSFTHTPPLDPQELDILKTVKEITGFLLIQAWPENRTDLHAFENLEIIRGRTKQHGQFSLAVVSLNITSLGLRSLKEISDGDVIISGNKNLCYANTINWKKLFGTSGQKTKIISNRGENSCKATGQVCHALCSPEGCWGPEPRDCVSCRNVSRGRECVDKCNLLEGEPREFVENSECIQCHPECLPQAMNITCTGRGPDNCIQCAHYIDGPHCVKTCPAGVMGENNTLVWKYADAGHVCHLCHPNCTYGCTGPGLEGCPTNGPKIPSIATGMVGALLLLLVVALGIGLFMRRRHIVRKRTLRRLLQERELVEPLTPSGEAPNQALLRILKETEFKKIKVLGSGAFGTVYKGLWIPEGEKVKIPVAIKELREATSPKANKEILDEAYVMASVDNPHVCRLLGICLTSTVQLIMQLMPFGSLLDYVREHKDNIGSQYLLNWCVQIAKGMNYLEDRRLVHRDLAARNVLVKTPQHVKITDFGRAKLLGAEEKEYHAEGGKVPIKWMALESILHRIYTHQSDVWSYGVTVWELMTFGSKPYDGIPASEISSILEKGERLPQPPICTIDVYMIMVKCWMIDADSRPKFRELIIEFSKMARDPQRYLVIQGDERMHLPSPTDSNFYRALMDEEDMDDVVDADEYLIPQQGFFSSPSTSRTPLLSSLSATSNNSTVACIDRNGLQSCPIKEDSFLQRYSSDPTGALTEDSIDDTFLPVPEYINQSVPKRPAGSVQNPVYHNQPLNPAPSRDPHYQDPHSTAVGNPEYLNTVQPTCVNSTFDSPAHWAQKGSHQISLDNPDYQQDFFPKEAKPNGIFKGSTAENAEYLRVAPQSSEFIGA

| Structure (SMILES) | IC50 (EGFR L858R/T790M/C797S; [1]) [nM] | IC50 (EGFR L858R/T790M/C797S; [2]) [nM] | IC50 (EGFR del19/C797S; [3]) [nM] | IC50 (EGFR del19/C797S; [4]) [nM] | IC50 (EGFR del19/T790M/C797S; [5]) [nM] | IC50 (EGFR del19/T790M/C797S; [6]) [nM] | IC50 (EGFR wildtype; [7]) [nM] | IC50 (EGFR wildtype; [8]) [nM] | IC50 (EGFR L858R/C797S; [9]) [nM] | IC50 (EGFR L858R/C797S; [10]) [nM] |
| --- | --- | --- | --- | --- | --- | --- | --- | --- | --- | --- |
| Cc1ccc(-c2cnc(Nc3ccnc(-c4cnn(S(=O)(=O)C5CC5)c4)n3)cc2N[C@H]2CC[C@@](C)(O)CC2)nn1 [Example 52, (1s,4s)-4-((2-((2-(1-(Cyclopropylsulfonyl)-1H-pyrazol-4-yl)pyrimidin-4-yl)amino)-5-(6-methylpyridazin-3-yl)pyridin-4-yl)amino)-1-methylcyclohexan-1-ol] | 0.3 | 0.1 | 0.6 | 0.5 | 0.5 | 0.3 | > 10000 | 3 | 0.6 | – |
| C[C@]1(O)CC[C@@H](Nc2cc(Nc3ccnc(-c4cnn(S(=O)(=O)C5CC5)c4)n3)ncc2-c2ccc(N3CCCCC3)cn2)CC1 [Example 54, (1s,4s)-4-((6′-((2-(1-(Cyclopropylsulfonyl)-1H-pyrazol-4-yl)pyrimidin-4-yl)amino)-5-(piperidin-1-yl)-[2,3′-bipyridin]-4′-yl)amino)-1-methylcyclohexan-1-ol] | 5.1 | – | 9.7 | 5.6 | 11.4 | 12.5 | 5840 | 9.2 | 1.4 | 7.3 |
| CN1CCN(Cc2ccnc(-c3cnc(Nc4ccnc(-c5cnn(S(=O)(=O)C6CC6)c5)n4)cc3N[C@H]3CC[C@@](C)(O)CC3)c2)CC1 [Example 55, (1s,4s)-4-((6′-((2-(1-(Cyclopropylsulfonyl)-1H-pyrazol-4-yl)pyrimidin-4-yl)amino)-4-((4-methylpiperazin-1-yl)methyl)-[2,3′-bipyridin]-4′-yl)amino)-1-methylcyclohexan-1-ol] | 0.4 | – | 1.1 | 0.5 | 1.7 | 0.7 | 754 | 1.9 | 0.3 | 1 |
| COc1cnc(-c2cnc(Nc3ccnc(-c4cnn(S(=O)(=O)C5CC5)c4)n3)cc2N[C@H]2CC[C@@](C)(O)CC2)cn1 [Example 56, (1s,4s)-4-((2-((2-(1-(Cyclopropylsulfonyl)-1H-pyrazol-4-yl)pyrimidin-4-yl)amino)-5-(5-methoxypyrazin-2-yl)pyridin-4-yl)amino)-1-methylcyclohexan-1-ol] | 2.4 | – | 8.8 | 5.9 | 1.4 | – | > 10000 | 169 | – | 122 |
| O=S(=O)(C1CC1)n1cc(-c2nccc(Nc3cc(NC4CCC(CO)CC4)c(-c4ccc(N5CCOCC5)cn4)cn3)n2)cn1 (centres unmarked) [Example 57, ((1s,4s)-4-((6′-((2-(1-(Cyclopropylsulfonyl)-1H-pyrazol-4-yl)pyrimidin-4-yl)amino)-5-morpholino-[2,3′-bipyridin]-4′-yl)amino)cyclohexyl)methanol] | 1 | – | 1.7 | 2 | 1.7 | – | 636 | 4.8 | 0.7 | 4.5 |
| CN1CCN(c2ccnc(-c3cnc(Nc4ccnc(-c5cnn(S(=O)(=O)C6CC6)c5)n4)cc3N[C@H]3CC[C@@](C)(O)CC3)c2)CC1 [Example 58, (1s,4s)-4-((6′-((2-(1-(Cyclopropylsulfonyl)-1H-pyrazol-4-yl)pyrimidin-4-yl)amino)-4-(4-methylpiperazin-1-yl)-[2,3′-bipyridin]-4′-yl)amino)-1-methylcyclohexan-1-ol] | 1.1 | – | 7.2 | 8 | 1.1 | – | > 10000 | 97.7 | 1.7 | 56.4 |
| Cc1cnc(-c2cnc(Nc3ccnc(-c4cnn(S(=O)(=O)C5CC5)c4)n3)cc2N[C@H]2CC[C@@](C)(O)CC2)cn1 [Example 59, (1s,4s)-4-((2-((2-(1-(Cyclopropylsulfonyl)-1H-pyrazol-4-yl)pyrimidin-4-yl)amino)-5-(5-methylpyrazin-2-yl)pyridin-4-yl)amino)-1-methylcyclohexan-1-ol] | 0.7 | 0.5 | 0.9 | 0.6 | 0.4 | 0.3 | > 10000 | 14.8 | 1 | 7.4 |
| C[C@]1(O)CC[C@@H](Nc2cc(Nc3ccnc(-c4cnn(S(=O)(=O)C5CC5)c4)n3)ncc2-c2cnc(CO)cn2)CC1 [Example 60, (1s,4s)-4-((2-((2-(1-(Cyclopropylsulfonyl)-1H-pyrazol-4-yl)pyrimidin-4-yl)amino)-5-(5-(hydroxymethyl)pyrazin-2-yl)pyridin-4-yl)amino)-1-methylcyclohexan-1-ol] | 0.4 | 0.2 | 0.5 | 0.4 | 0.2 | 0.2 | > 10000 | 6.8 | 0.4 | 4.2 |
| C[C@]1(O)CC[C@@H](Nc2cc(Nc3ccnc(-c4cnn(S(=O)(=O)C5CC5)c4)n3)ncc2-c2cc(CN3CCOCC3)ccn2)CC1 [Example 61, (1s,4s)-4-((6′-((2-(1-(Cyclopropylsulfonyl)-1H-pyrazol-4-yl)pyrimidin-4-yl)amino)-4-(morpholinomethyl)-[2,3′-bipyridin]-4′-yl)amino)-1-methylcyclohexan-1-ol] | 0.2 | – | 0.4 | – | 0.2 | – | 3940 | – | – | 1.8 |
| CN1CCN(Cc2cnc(-c3cnc(Nc4ccnc(-c5cnn(S(=O)(=O)C6CC6)c5)n4)cc3N[C@H]3CC[C@@](C)(O)CC3)cn2)CC1 [Example 62, (1s,4s)-4-((2-((2-(1-(Cyclopropylsulfonyl)-1H-pyrazol-4-yl)pyrimidin-4-yl)amino)-5-(5-((4-methylpiperazin-1-yl)methyl)pyrazin-2-yl)pyridin-4-yl)amino)-1-methylcyclohexan-1-ol] | 0.1 | – | 0.2 | – | 0.1 | – | 745 | – | – | 0.9 |
| C[C@]1(O)CC[C@@H](Nc2cc(Nc3ccnc(-c4cnn(S(=O)(=O)C5CC5)c4)n3)ncc2-c2ccc(C(F)F)cn2)CC1 [Example 63, (1s,4s)-4-((6′-((2-(1-(Cyclopropylsulfonyl)-1H-pyrazol-4-yl)pyrimidin-4-yl)amino)-5-(difluoromethyl)-[2,3′-bipyridin]-4′-yl)amino)-1-methylcyclohexan-1-ol] | 0.2 | – | 0.8 | – | 0.2 | – | > 10000 | – | – | 5.4 |
| CN(C)Cc1ccnc(-c2cnc(Nc3ccnc(-c4cnn(S(=O)(=O)C5CC5)c4)n3)cc2N[C@H]2CC[C@@](C)(O)CC2)c1 [Example 64, (1s,4s)-4-((6′-((2-(1-(Cyclopropylsulfonyl)-1H-pyrazol-4-yl)pyrimidin-4-yl)amino)-4-((dimethylamino)methyl)-[2,3′-bipyridin]-4′-yl)amino)-1-methylcyclohexan-1-ol] | 0.3 | 0.1 | 0.2 | – | 0.1 | 0.1 | 1170 | 2.4 | 0.2 | 0.9 |
| CN(C)Cc1cnc(-c2cnc(Nc3ccnc(-c4cnn(S(=O)(=O)C5CC5)c4)n3)cc2N[C@H]2CC[C@@](C)(O)CC2)cn1 [Example 65, (1s,4s)-4-((2-((2-(1-(Cyclopropylsulfonyl)-1H-pyrazol-4-yl)pyrimidin-4-yl)amino)-5-(5-((dimethylamino)methyl)pyrazin-2-yl)pyridin-4-yl)amino)-1-methylcyclohexan-1-ol] | 0.3 | 0.1 | 0.2 | 0.3 | 0.1 | 0.1 | 1140 | 2.4 | 0.1 | 0.9 |
